Experimental data: patent US11884709B2, “Peptides for the treatment of resorptive bone disease” (University of New Brunswick, priority 2015, dated 2024)
“Also recorded” adds a separate entry of the source. Where no end group is shown, it is not given here.

Columns and labels:
[1] = tested on: osteoclast differentiation; assay: Osteoclast differentiation from bone marrow mononuclear cells (M-CSF and RANKL); type: cell-based, human; conditions: 150 μM (C5)
Protocol: (§1) Osteoclasts were generated in vitro by the modified method of Cody et al., 2011, using fresh human bone marrow aspirates. Briefly, bone marrow mononuclear cells (BMC) separated on a density gradient medium in SepMate tubes were resuspended in growth media (α-MEM with 10% FBS) and cultured for 3 days in T75 flask with 35 ng/mL M-CSF at 37° C. in a 5% CO2 incubator. For osteoclast differentiation experiments, 10^5 cells/well of BM monocytes-macrophage precursors seeded in a 24 well plate was treated with human M-CSF and RANKL, and media replenished with fresh cytokines every third day for two weeks.
(§2) 10^5 BMCs per well in 24 well Corning osteoassay plate were treated with human M-CSF (10 ng/mL) and 10 ng/mL of human RANKL. […] Osteoassay plate was scanned using ChemiDoc MP and area of resorption pits in each well was quantified using ImageJ 1.48v Software.
(§3) The effect of C-terminal Soricidin peptides on osteoclast activity and bone resorption was examined using 24-well corning assay plates that have a 3D osteo surface that mimics in vivo bone for in vitro bone cell assays. […] Resorption of the osteosurface is evident from the resorption pits/trails made by the osteoclasts, and the extent of resorption was quantified. Furthermore, the percentage activity of TRAP, one of the enzymes involved in bone resorption, was determined in tandem with the resorption assay (FIG. 7c). […]

[2] = tested on: Tartrate-Resistant Acid Phosphatase (TRAP) in osteoclasts; assay: TRAP enzyme activity in conditioned media of osteoassay wells; type: cell-based, human; conditions: relative to controls
Protocol: Osteoclasts were fixed and stained for tartrate-resistant acid phosphatase (TRAP) using the leukocyte acid phosphatase kit (Sigma-Aldrich) according to the manufacturer's protocol. Images were acquired in EVOS brightfield microscope. To visualize actin ring formation in osteoclasts, tetramethyl rhodamine-phalloidin (Life Technologies Inc.) staining was done for 1 hour. The cell nuclei were counterstained with 1 μg/ml Hoechst 33342 (Sigma-Aldrich) in phosphate buffered saline for 5 minute. Images were acquired in EVOS fluorescence microscope. TRAP enzyme activity was measured at 37° C. with a substrate buffer (125 mg/ml Naphthol AS-BI phosphoric acid in diazotized fast garnet base chemical solution, Sigma-Aldrich) at 560 nm.
as §2
as §3, with “quantified.” for “quantified. Furthermore, the percentage activity of TRAP, one of the enzymes involved in bone resorption, was determined in tandem with the resorption assay (FIG. 7c).”

[3] = tested on: U266 cells; assay: 48 hr peptide treatment, myeloma cell growth (U266); type: cell-based, human; conditions: 1 uM-500 uM
Protocol: C1=1 uM, C2=10 uM, C3=50 uM, C4=100 uM, C5=150 uM, C6=250 uM, C7=400 uM, C8=500 uM.
(§4) The expression of TRPV6 protein was also observed in human myeloma cells by immunohistochemistry on myeloma bone sections (FIG. 1C) and in myeloma cell lines by western blotting (FIG. 9). Moreover, the growth inhibitory potential of SOR-C13 and SOR-C27 was determined using human myeloma cell lines U266 and KMM-1 (FIGS. 10 and 11). There exists a reciprocal relationship between myeloma cells and osteoclasts in the bone marrow milieu where myeloma cells secrete many factors that promote osteoclast activity, and in turn osteoclasts induce myeloma cell growth and survival.

[4] = tested on: KMM-1 cells; assay: 48 hr peptide treatment, myeloma cell growth (KMM-1); type: cell-based, human; conditions: 1 uM-500 uM
Protocol: C1=1 uM, C2=10 uM, C3=50 uM, C4=100 uM, C5=150 uM, C6=250 uM, C7=300 uM, C8=400 uM, C9=500 uM.
as §4

[5] = tested on: human osteoclasts; assay: Osteoassay: bone resorption by osteoclasts on Corning osteoassay plate; type: cell-based; conditions: for resorptive activity on corning osteoassay surface: 150 μM (C5); for bone resorption by osteoclasts / osteoclast activity (percentage resorption): Corning osteoassay plate, 1 uM-150 uM, M-CSF and RANKL, day 12
Protocol: as §1
10^5 BMCs per well in 24 well Corning osteoassay plate were treated with human M-CSF (10 ng/mL) and 10 ng/mL of human RANKL. Undifferentiated condition includes cells treated with M-CSF only. The treatment wells had both M-CSF and RANKL followed by addition of TRPV6 peptide antagonists SOR-C13 and SOR-C27 at concentrations range 1 μM-150 μM tested in triplicate wells, vehicle or PBS buffer in which the peptides are dissolved and the standard anti-resorbing agent, Zoledronate were included for the experiment. Replenishment with fresh media containing M-CSF, RANKL and SOR peptides in respective wells was carried out every third day. On day 12, cells in osteoplates were removed by incubating with 10% bleach for 10 minutes; wells were washed with distilled water three times and air-dried for 3-5 hrs. Osteoassay plate was scanned using ChemiDoc MP and area of resorption pits in each well was quantified using ImageJ 1.48v Software.
Experiments were done in triplicates for each condition and data presented as mean±SD. All statistical analyses were done using GraphPad Prism 6, one way ANOVA and Dunnett's multiple comparison test was used to determine significance between groups and P<0.05 is considered statistically significant.
The effect of C-terminal Soricidin peptides on osteoclast activity and bone resorption was examined using 24-well corning assay plates that have a 3D osteo surface that mimics in vivo bone for in vitro bone cell assays. The inorganic bone biomaterial surface in each well is capable of supporting the functional properties of osteogenic cells. Only osteoclasts, specialized cells expressing bone-resorbing enzymes such as TRAP, cathepsin K and collagenase, can resorb such an artificial osteosurface. Resorption of the osteosurface is evident from the resorption pits/trails made by the osteoclasts, and the extent of resorption was quantified. Furthermore, the percentage activity of TRAP, one of the enzymes involved in bone resorption, was determined in tandem with the resorption assay (FIG. 7c). The anti-resorptive potential of selective TRPV6 antagonist peptides, SOR-C13 and SOR-C27 at various concentrations was observed (FIGS. 7 and 8) was observed.

[6] = in vivo; cited from earlier work
[7] = tested on: two ovarian cancer cell lines; conditions: cited from earlier work

Substance | osteoclast differentiation in vitro [1] | TRAP enzyme activity [2] | cell growth [3] | cell growth [4] | resorptive activity on corning osteoassay surface [5] | bone resorption by osteoclasts / osteoclast activity (percentage resorption) [5] | paralysis [6] | calcium uptake [7]
EGKLSSNDTEGGLCKEFLHPSKVDLPR [SOR-C27, peptide corresponding to the C-terminal end of soricidin; TRPV6 peptide antagonist] | inhibited osteoclast differentiation | decrease in TRAP enzyme activity relative to controls | dose-dependent inhibition of cell growth | dose-dependent inhibition of cell growth | significantly reduced their resorptive activity | dose-dependent Inhibition of osteoclast activity; also recorded: dose-dependent decrease in bone resorption | – | –
Soricidin: fifty-four amino acid paralytic peptide isolated from the submaxilary saliva gland of the Northern Short-tailed Shrew (Blarina brevicauda) (DCSQDCAACSILARPAELNTETCILECEGKLSSNDTEGGLCKEFLHPSKVDLPR; UniProt P0C2P6 1-54, looked up) | – | – | – | – | – | – | caused paralysis | inhibited calcium uptake
KEFLHPSKVDLPR [SOR-C13, KEFLHPSKVDLPR] | inhibited osteoclast differentiation | decrease in TRAP enzyme activity relative to controls | dose-dependent inhibition of cell growth | dose-dependent inhibition of cell growth | significantly reduced their resorptive activity | inhibition of osteoclast activity; also recorded: dose-dependent decrease in bone resorption | – | –
